From EP1280528B1, “R-ELIPRODIL FOR TREATING GLAUCOMA” (Alcon, Inc, priority 2000, dated 2001)
Entries after “also recorded” stand apart in the source; their conditions may differ.

Key:
histamine H1 = histamine H1 (Homo sapiens, UniProt P35367); test: binding studies, histamine H1
Text: (§1) The role of these pharmacological activities in the neuroprotective efficacy has not been established for this drug.

β3-adrenergic = β3-adrenergic (Homo sapiens, UniProt P13945); test: binding studies, β3-adrenergic
Text: as §1

5-HT uptake = 5-HT uptake (Homo sapiens, UniProt P31645); test: binding studies, 5-HT uptake
Text: as §1

5-HT2A = 5-HT2A (Homo sapiens, UniProt P28223); test: binding studies, 5-HT2A
Text: as §1

5-HT1A = biological target: T1, 5-HT1A (Homo sapiens, UniProt P08908); test: binding studies, 5-HT1A
T1 sequence (P08908 1-422): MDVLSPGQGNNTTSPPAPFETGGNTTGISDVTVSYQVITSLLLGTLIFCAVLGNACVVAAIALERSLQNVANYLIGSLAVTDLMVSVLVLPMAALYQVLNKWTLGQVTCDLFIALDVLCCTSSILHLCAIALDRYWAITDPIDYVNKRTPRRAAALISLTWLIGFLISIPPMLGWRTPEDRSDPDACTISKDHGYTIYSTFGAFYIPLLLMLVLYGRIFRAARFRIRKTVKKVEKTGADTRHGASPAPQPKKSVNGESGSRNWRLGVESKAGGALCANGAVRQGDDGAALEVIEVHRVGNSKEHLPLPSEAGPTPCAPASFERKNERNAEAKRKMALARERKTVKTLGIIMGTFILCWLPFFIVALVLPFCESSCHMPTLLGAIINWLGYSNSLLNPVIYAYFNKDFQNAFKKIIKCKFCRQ
Text: as §1

histamine H2 = histamine H2 (Homo sapiens, UniProt P25021); test: binding studies, histamine H2
Text: as §1

α1-adrenergic = test: binding studies, α1-adrenergic
Text: as §1

5-HT7 = 5-HT7 (Homo sapiens, UniProt P34969); test: binding studies, 5-HT7
Text: as §1

[1] = system: rat retinal ganglion cells; test: glutamate-induced rat retinal ganglion cell death; assay type: cell-based; details: 10nM for 30 minutes, then 100µM glutamate, viable cells counted after 3 days; Figure 1
Text: Retinal ganglion cells were selected as they represent the retinal cell that degenerates in glaucoma. MK-801 was selected as a reference NMDA antagonist.
Isolation of rat retinal ganglion cells and assessment of viability in the absence and presence of glutamate was described in Pang, et al., "Protection by Eliprodil Against Excitotoxicity in Cultured Rat Retinal Ganglion Cells", Investigative Ophthalmology & Visual Science, Vol. 40(6), pp. 1170-1176, May, 1999. Briefly, isolated cultured rat retinal ganglion cells were treated with racemic (R/S) eliprodil (10nM), R-eliprodil (10nM), or S-eliprodil (10nM) for thirty (30) minutes followed by the addition of 100µM glutamate. Survival was determined by counting viable cells after an incubation period of three (3) days. Survival with vehicle alone defines 100%. […] S-eliprodil was ineffective.

hippocampal slices = test: recovery of synaptic transmission after hypoxia in hippocampal slices; assay type: cell-based; details: for efficacy for recovery of excitatory post synaptic potentials following hypoxia: at a comparable dose
Method: Dose-response relations comparing the efficacy of Racemic (R/S)-eliprodil (open circles), R-eliprodil (closed circles) and memantine (closed diamonds) for their ability to improve recovery of synaptic transmission following a 15 minute period of hypoxia in hippocampal slices in vitro (Figure 2).
Preparation of the hypoxic hippocampal slice preparation has been reported by Reyes et al., "Eliprodil, a non-competitive, NR2B-selective NMDA antagonist, protects pyramidal neurons in hippocampal slices from hypoxic/ischemic damage", Brain Research, Vol. 782, pp. 212-218, 1998. Briefly, hippocampal slices were prepared acutely the same day as the experiment, and each compound was bath applied 30 minutes prior to delivery of the 15 minute hypoxic insult. Recovery of evoked epsps is expressed as percent of the initial, pre-hypoxia epsp maximum slope, with this percent recovery assessed 60 minutes after reoxygenation. Each point is the mean ± S.E.M. of 8 slices at each dose, and EC50's were calculated from a single-active site Lineweaver-Burke linear fit.

[2] = system: lateral vestibular nucleus; test: NMDA-induced firing rate of the lateral vestibular nucleus in vivo
[3] = system: piglet Purkinje fibers from the heart; test: action potential duration in piglet Purkinje fibers; details: for maximum effect on APD90: comparison between compounds; for concentration with statistically significant prolongation of APD90: action potential duration at 90% repolarization
Method: (§2) Eliprodil and its enantiomers were evaluated for their potential for prolonging QTc by determining their dose-related effects on cardiac electrical activity. Two different experimental models were utilized for these studies: (1) Action potential duration in piglet Purkinje fibers from the heart and (2) Electrocardiographic parameters in pentobarbital anesthetized cats.

[4] = system: pentobarbital-anesthetized cats; test: hemodynamic and electrocardiographic parameters in anesthetized cats; details: increasing doses 0.01 to 3 mg/kg, five-minute intravenous infusion every 20 minutes
Method: as §2
Eliprodil and its two enantiomers were also evaluated for hemodynamic and electrocardiographic parameters in pentobarbital-anesthetized cats. […] Compounds were administered at increasing doses from 0.01 to 3 mg/kg as a five-minute intravenous infusion every 20 minutes. […]

humans = details: following some doses in humans; cited from earlier work
sigma receptors = details: rat brain; U.S. Patent No. 5,023,266; cited from earlier work
[5] = U.S. Patent No. 5,547,963; cited from earlier work
NMDA receptor = NMDA receptor (Homo sapiens, UniProt Q05586+Q13224); test: electrophysiology and ligand displacement studies at the NMDA receptor; assay type: binding
[6] = plasma level in the anesthetized cat protocol; assay type: in vivo; details: 0.1 mg/kg dose, intravenous infusion

NMDA receptor, sequence (Q13224 27-1484, other chains not shown): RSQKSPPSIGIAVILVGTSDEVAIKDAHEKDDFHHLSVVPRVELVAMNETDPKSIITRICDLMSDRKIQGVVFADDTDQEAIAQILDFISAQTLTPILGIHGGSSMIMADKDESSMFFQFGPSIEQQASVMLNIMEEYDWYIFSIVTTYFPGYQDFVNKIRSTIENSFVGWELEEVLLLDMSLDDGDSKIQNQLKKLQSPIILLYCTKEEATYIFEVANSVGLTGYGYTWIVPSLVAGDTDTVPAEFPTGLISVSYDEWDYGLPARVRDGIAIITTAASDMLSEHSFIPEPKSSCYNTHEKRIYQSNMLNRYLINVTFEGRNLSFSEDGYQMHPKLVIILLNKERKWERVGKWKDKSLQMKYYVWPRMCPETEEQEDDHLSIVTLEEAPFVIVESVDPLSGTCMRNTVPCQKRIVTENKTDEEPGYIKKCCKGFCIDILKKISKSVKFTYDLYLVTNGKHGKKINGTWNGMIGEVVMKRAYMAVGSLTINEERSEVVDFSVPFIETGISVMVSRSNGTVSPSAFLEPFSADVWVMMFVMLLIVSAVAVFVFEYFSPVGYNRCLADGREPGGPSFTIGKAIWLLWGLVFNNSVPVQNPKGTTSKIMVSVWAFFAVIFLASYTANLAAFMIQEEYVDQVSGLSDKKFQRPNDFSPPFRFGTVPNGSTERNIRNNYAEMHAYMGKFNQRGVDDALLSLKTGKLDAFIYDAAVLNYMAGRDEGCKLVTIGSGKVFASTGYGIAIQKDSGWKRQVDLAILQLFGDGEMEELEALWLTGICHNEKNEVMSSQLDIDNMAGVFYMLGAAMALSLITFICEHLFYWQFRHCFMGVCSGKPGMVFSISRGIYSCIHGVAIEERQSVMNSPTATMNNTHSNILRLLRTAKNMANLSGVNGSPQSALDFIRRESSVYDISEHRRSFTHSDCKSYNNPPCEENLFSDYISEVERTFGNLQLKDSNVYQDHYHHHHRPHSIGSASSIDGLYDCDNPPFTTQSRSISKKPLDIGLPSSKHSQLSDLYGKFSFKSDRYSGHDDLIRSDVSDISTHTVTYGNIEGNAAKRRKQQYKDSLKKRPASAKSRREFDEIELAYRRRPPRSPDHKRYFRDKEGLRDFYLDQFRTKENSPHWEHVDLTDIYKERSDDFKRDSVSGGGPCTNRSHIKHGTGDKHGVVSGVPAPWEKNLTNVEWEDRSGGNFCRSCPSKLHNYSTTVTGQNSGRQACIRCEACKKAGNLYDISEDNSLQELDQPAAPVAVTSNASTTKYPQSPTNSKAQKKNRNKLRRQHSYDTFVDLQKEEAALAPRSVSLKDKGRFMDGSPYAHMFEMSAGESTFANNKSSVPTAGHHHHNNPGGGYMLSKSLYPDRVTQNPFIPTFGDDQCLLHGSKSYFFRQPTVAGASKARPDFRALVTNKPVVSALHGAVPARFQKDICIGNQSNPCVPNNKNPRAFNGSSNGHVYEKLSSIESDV
5-HT uptake, sequence (P31645 whole entry): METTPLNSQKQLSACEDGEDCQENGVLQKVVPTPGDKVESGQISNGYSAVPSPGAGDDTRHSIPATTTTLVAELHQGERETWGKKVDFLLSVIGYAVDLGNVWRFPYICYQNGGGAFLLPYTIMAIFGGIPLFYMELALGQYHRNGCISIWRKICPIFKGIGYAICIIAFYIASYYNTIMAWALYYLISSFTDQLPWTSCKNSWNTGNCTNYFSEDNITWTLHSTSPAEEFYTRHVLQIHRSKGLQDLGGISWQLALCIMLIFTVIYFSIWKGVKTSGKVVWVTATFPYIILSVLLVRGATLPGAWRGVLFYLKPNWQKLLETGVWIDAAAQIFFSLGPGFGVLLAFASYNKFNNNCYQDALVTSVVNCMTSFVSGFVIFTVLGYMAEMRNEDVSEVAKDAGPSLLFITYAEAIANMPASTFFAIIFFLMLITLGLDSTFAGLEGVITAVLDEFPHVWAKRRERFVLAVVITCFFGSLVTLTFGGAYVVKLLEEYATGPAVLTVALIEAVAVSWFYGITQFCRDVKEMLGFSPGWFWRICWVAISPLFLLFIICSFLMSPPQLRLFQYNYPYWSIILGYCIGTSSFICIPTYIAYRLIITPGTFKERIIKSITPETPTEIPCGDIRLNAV
5-HT2A, sequence (P28223 whole entry): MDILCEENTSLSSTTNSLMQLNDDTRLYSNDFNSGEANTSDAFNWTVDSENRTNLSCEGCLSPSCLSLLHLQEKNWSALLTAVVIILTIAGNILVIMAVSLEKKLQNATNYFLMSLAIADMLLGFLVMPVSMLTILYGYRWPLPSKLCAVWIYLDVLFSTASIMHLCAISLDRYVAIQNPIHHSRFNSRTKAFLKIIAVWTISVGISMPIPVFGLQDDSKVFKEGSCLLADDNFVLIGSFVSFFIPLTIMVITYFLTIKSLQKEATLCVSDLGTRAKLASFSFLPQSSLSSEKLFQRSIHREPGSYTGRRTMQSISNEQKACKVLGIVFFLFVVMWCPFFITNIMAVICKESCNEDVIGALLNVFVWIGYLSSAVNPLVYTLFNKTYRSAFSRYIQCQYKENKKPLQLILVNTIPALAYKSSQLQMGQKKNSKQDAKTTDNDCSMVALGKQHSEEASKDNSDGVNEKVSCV
histamine H2, sequence (P25021 whole entry): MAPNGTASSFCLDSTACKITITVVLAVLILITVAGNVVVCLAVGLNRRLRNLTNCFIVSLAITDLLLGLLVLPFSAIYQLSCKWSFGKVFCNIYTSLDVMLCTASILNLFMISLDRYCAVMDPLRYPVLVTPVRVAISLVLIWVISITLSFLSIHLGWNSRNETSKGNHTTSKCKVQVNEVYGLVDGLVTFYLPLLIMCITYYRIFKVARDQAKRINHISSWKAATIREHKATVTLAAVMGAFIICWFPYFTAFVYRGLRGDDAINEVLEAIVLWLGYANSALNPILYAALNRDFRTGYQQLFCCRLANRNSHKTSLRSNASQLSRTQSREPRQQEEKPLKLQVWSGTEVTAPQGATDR
β3-adrenergic, sequence (P13945 whole entry): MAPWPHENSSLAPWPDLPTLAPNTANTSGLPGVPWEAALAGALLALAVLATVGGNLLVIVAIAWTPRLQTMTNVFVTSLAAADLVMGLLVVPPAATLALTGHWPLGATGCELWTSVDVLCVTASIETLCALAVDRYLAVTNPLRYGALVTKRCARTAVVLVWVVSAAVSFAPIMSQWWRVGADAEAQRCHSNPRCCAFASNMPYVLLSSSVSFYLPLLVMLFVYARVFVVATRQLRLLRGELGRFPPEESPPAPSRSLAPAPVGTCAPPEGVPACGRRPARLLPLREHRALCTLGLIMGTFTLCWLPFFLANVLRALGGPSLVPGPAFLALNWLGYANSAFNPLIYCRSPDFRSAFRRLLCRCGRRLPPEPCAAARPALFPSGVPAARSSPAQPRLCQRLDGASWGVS
5-HT7, sequence (P34969 whole entry, species assumed): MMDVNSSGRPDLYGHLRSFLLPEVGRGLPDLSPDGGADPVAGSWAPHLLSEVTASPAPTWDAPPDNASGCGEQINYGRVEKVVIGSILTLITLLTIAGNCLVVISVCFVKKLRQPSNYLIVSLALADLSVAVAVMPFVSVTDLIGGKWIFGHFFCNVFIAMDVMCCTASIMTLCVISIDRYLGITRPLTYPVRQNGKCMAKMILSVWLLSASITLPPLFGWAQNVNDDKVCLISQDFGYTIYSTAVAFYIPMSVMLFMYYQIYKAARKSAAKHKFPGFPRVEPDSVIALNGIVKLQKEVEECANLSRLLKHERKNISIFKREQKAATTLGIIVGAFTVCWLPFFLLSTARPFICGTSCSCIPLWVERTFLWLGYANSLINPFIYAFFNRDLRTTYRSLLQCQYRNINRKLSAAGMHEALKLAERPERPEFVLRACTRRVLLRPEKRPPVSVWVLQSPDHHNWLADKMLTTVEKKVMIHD
histamine H1, sequence (P35367 whole entry): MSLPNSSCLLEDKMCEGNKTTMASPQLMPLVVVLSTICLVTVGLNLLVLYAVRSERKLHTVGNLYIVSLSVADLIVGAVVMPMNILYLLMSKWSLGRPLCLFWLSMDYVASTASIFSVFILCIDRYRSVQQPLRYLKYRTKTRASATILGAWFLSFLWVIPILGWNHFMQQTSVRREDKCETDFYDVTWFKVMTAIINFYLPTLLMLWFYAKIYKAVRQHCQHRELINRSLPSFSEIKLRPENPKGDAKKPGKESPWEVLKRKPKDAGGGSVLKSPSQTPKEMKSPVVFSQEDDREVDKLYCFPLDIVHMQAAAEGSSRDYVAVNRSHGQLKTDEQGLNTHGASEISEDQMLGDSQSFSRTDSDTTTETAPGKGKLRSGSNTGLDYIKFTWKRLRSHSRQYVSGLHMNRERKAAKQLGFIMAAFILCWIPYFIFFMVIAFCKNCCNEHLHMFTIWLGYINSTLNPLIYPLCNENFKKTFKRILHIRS

| Structure (SMILES) | neuroprotective effect (survival of retinal ganglion cells) [1] | efficacy for recovery of excitatory post synaptic potentials following hypoxia (hippocampal slices) | inhibition of NMDA-induced firing rate [2] | maximum effect on APD90 [3] | Threshold Dose, Heart Rate Decrease [4] [mg/kg] | Threshold Dose, Mean Blood Pressure Decrease [4] [mg/kg] | Threshold Dose, QTc Prolongation [4] [mg/kg] | neurotrophic effects [5] | Ki (NMDA receptor) [µM] | concentration with statistically significant prolongation of APD90 [3] [nM] | also measured |
| --- | --- | --- | --- | --- | --- | --- | --- | --- | --- | --- | --- |
| OC(CN1CCC(Cc2ccc(F)cc2)CC1)c1ccc(Cl)cc1 (racemic) [Eliprodil] | marked neuroprotective activity | less effective | strongly inhibit | equal to that of S(+) eliprodil | 0.1 | 1.0 | 0.03 | Equipotency |  |  | affinity (histamine H1): sub-micromolar; affinity (β3-adrenergic): sub-micromolar; affinity (5-HT uptake): sub-micromolar; affinity (5-HT2A): sub-micromolar; affinity (5-HT1A): sub-micromolar; affinity (histamine H2): sub-micromolar; affinity (α1-adrenergic): sub-micromolar; affinity (5-HT7): sub-micromolar; QTc prolongation (humans): asymptomatic QTc prolongation; binding to sigma receptors (sigma receptors): potently bind |
| O[C@@H](CN1CCC(Cc2ccc(F)cc2)CC1)c1ccc(Cl)cc1 [R-eliprodil, R-α-(4-chlorophenyl)-4-(4-fluorophenylmethyl)-1-peperidineethanol] | marked neuroprotective activity; also recorded: as efficacious as a protectant as racemic eliprodil | substantial recovery; also recorded: more efficacious than either racemic or S-eliprodil | strongly inhibit | less than that seen with S(+) eliprodil | 0.3 | 1.0 | 0.1 | Equipotency | 0.2 | ≥ 100 | potency for recovery of evoked epsps (EC50 comparison) (hippocampal slices; bath applied 30 minutes before 15 minute hypoxia, recovery 60 minutes after reoxygenation, p<0.05, Figure 2): statistically significantly more potent; plasma level [6]: 34.9 ± 2.8 ng/mL |
| O[C@H](CN1CCC(Cc2ccc(F)cc2)CC1)c1ccc(Cl)cc1 [S-eliprodil] | ineffective | less effective | almost inactive at the highest dose tested |  | 0.1 | 1.0 | 0.01 | Equipotency | 10 | ≥ 30 |  |
